Experimental data as given in paper PMC12292791, “Insights into Membrane Damage by α-Helical and β-Sheet Peptides” (Biomolecules, 2025).
Peptide text beside a SMILES is read from it.

How the values were obtained:
[1] = ANTS/DPX dye leakage assay with large unilamellar vesicles; type: biochemical; details: 500 µM lipid
Protocol: Large unilamellar vesicles were prepared using a modified procedure from Wimley. Individual solutions of 1-palmitoyl-2-oleoyl-glycero-3-phosphocholine (POPC) and 1-palmitoyl-2-oleoyl-sn-glycero-3-phospho-(1’-rac-glycerol) (sodium salt) (POPG) lipids (Avanti Research, Alabaster, AL, USA) in chloroform were mixed in a 7:3 mol/mol POPC–POPG ratio, and the chloroform was gently evaporated under a stream of nitrogen gas. The lipid film was then dried in vacuo overnight. After complete evaporation of the chloroform, the lipid film was resuspended in the vesicle preparation buffer to yield a 25 mM lipid solution. The vesicle preparation buffer consisted of 45 mM KCl, 10 mM Tris HCl, 8 mM 8-aminonaphthalene-1,3,6-trisulfonic acid disodium salt (ANTS) (Fisher Scientific Inc., Waltham, MA, USA), and 32 mM p-xylene-bis-pyridinium bromide (DPX) (Fisher Scientific, Inc.). The lipid film was allowed to dissolve in the vesicle preparation buffer for approximately 15 min. If any lipid film remained on the side of the tube, the solution was gently pipetted up and down to mix the film with the liposome suspension. Once the film was thoroughly dissolved, the lipid suspension was subjected to 10 freeze/thaw cycles using a dry ice/ethanol bath and a 60 °C water bath to facilitate encapsulation of the fluorophore and quencher pair (ANTS and DPX). […]
Lyophilized peptide was dissolved in the liposome elution buffer at a volume corresponding to half the total volume needed for the experiment. The liposome solution was diluted to 1 mM lipid from the concentration calculated using the phosphorus concentration method described above. […]
Fluorescence measurements were conducted on a Tecan Spark® 20M plate reader (Tecan, Männedorf, Zurich, Switzerland). […] The wells were excited at 355 nm with a bandwidth of 5 nm, and emission was monitored at a wavelength of 520 nm with a bandwidth of 10 nm. The gain and z-position were calculated using a well containing liposomes lysed with reduced Triton^TM X-100 (Sigma-Aldrich) to produce maximum fluorescence. […]
To ensure accurate comparison across batches of liposomes, the percentage leakage was calculated using the formula: PercentLeakage=F−F0/Flysed−F0×100 where F is the relative fluorescence (RF) at time t, F0 is the RF at t=0 , and Flysed is the RF after the addition of detergent. Since leakage occurred immediately upon mixing the liposome and peptide solutions, the initial fluorescence ( F0 ) was determined by adding the relative fluorescence of liposomes alone to the relative fluorescence of the peptide in the elution buffer at each relevant concentration. […] Leakage experiments were performed at least in triplicate, and error bars were calculated as the standard deviation about the mean. […]

[2] = Solubility in liquid elution buffer observed during CD measurements; type: physicochemical; details: liposome elution buffer (75 mM KCl, 20 mM Tris HCl), lyophilized peptide dissolved, 25 °C CD samples
Protocol: Circular dichroism (CD) spectra were recorded using a Jasco-815 circular dichroism spectrometer with a 0.1 mm path-length quartz cuvette. Scans were performed at 25 °C in duplicate, covering the wavelength range of 190–260 nm. The scanning parameters included a 1.0 nm data pitch, 1.0 nm bandwidth, and a scanning speed of 100 nm/min.
Additionally, the spectra recorded in the presence of the LUVs differed from those recorded in buffer alone. […] At peptide concentrations higher than 500 µM, M03 began to lose solubility, while M04 began to precipitate from solution at concentrations higher than 200 µM. The reduced solubility of M04 was likely due to the orientation of all its hydrophobic residues on one face of the α -helix, making it more prone to aggregation in aqueous solutions. […] It is also important to note that the CD spectra of M03 and M04 were noticeably different from each other. This underscores the effect that varying the sequence pattern, even slightly, can have on the resulting peptide properties.

[3] = immediately upon dissolution in aqueous solvent; cited from earlier work
Description: In the following section, we discuss the secondary structure and membrane damage properties of M03 and M04. […] This happened immediately upon dissolution in aqueous solvent; likely before it was able to interact with the membranes. Therefore, it was difficult to determine the effect of M01 peptides on membranes experimentally, as the leakage observed was likely due to mechanical disruption of the liposomes as the peptide monomers assembled ...

## CC(=O)N[C@@H](Cc1ccccc1)C(=O)N[C@@H](Cc1ccccc1)C(=O)N[C@@H](CCCCN)C(=O)N[C@@H](CCCCN)C(=O)N[C@@H](Cc1ccccc1)C(=O)N[C@@H](Cc1ccccc1)C(=O)N[C@@H](CCC(=O)O)C(=O)N[C@@H](CCC(=O)O)C(N)=O [Peptide M02, Ac-FFKKFFEE-NH2] (Ac-FFKKFFEE-NH2)
[1]; peptide 100 µM, 500 µM and 1 mM (P:L 1:5, 1:1, 2:1), 7:3 POPC–POPG LUVs, ANTS/DPX
  leakage: minimal leakage

## CC(=O)N[C@@H](Cc1ccccc1)C(=O)N[C@@H](Cc1ccccc1)C(=O)N[C@@H](CCCCN)C(=O)N[C@@H](CCCCN)C(=O)N[C@@H](Cc1ccccc1)C(=O)N[C@@H](Cc1ccccc1)C(=O)N[C@@H](CCC(=O)O)C(=O)N[C@@H](CCC(=O)O)C(=O)N[C@@H](Cc1ccccc1)C(=O)N[C@@H](Cc1ccccc1)C(=O)N[C@@H](CCCCN)C(=O)N[C@@H](CCCCN)C(=O)N[C@@H](Cc1ccccc1)C(=O)N[C@@H](Cc1ccccc1)C(=O)N[C@@H](CCC(=O)O)C(=O)N[C@@H](CCC(=O)O)C(N)=O [Peptide M03, Ac-(FFKKFFEE)2-NH2] (Ac-FFKKFFEEFFKKFFEE-NH2)
[1]; all P:L ratios tested (1:50, 2:50, 1:10, 1:5, 2:5), ANTS/DPX in 7:3 POPC–POPG LUVs, 75 mM KCl/20 mM Tris HCl, room temperature, fluorescence ex 355/em 520 nm, at least triplicate
  percentage of leakage: greater than 80%
[2]
  peptide concentration above which the peptide begins to lose solubility / precipitate: higher than 500 µM

## CC(=O)N[C@@H](Cc1ccccc1)C(=O)N[C@@H](Cc1ccccc1)C(=O)N[C@@H](CCCCN)C(=O)N[C@@H](CCCCN)C(=O)N[C@@H](Cc1ccccc1)C(=O)N[C@@H](Cc1ccccc1)C(=O)N[C@@H](CCC(=O)O)C(=O)N[C@@H](CCC(=O)O)C(=O)N[C@@H](Cc1ccccc1)C(=O)N[C@@H](CCCCN)C(=O)N[C@@H](CCCCN)C(=O)N[C@@H](Cc1ccccc1)C(=O)N[C@@H](Cc1ccccc1)C(=O)N[C@@H](CCC(=O)O)C(=O)N[C@@H](CCC(=O)O)C(=O)N[C@@H](Cc1ccccc1)C(N)=O [Peptide M04, Ac-FFKKFFEEFKKFFEEF-NH2] (Ac-FFKKFFEEFKKFFEEF-NH2)
[1]; P:L 1:50 (lowest ratio), ANTS/DPX in 7:3 POPC–POPG LUVs, 75 mM KCl/20 mM Tris HCl, fluorescence, at least triplicate
  percentage of leakage: no leakage
[1]; P:L 2:50, ANTS/DPX in 7:3 POPC–POPG LUVs, 75 mM KCl/20 mM Tris HCl, fluorescence, at least triplicate
  percentage of leakage (damage): 21%
[2]
  peptide concentration above which the peptide begins to lose solubility / precipitate: higher than 200 µM

## Ac-FKFEFKFE-NH2 [Peptide M01, 8-residue amphipathic β-sheet forming peptide]
[3]
  self-assembly / aggregation: self-assembled into supramolecular β -sheet rich fibers
